In patent publication US20120328711A1, “Antimicrobial system for selective, site-activated binding at target sites” (priority 2011, published 2012):

Assay: Peroxide retention after desiccation and rehydration (peroxide check strips)
Type: physicochemical
Details: 1 g-10 g extract in 20 ml 35% hydrogen peroxide, heated at 80° C., desiccated to 5 ml, rehydrated; colorimetric strips

Oc1ccc(C=Cc2cc(O)cc(O)c2)cc1 [resveratrol, Resveratrol]
peroxide retention capability: relatively less ability to form stable perhydrates
